This is an account of results in patent publication US20230167118A1, “DEGRADATION OF BRUTON'S TYROSINE KINASE (BTK) BY CONJUGATION OF BTK INIDBITORS WITH E3 LIGASE LIGAND AND METHODS OF USE” (BEIGENE, LTD., priority 2020, published 2023).

SMILES strings stand for the structures.

One experiment relates to HEK-293 cells. Nature of the experiment: HEK-293 Cytotoxicity Assay (CellTiter-Glo). Type of experiment: cell-based. The following applies: Homo sapiens, HEK293, 72 h incubation, CellTiter-Glo luminescence. Summed up:
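Four-parameter fit of % inhibition gives IC50, from CellTiter-Glo luminescent viability read-out. Cells exposed for 72 h to an 8-point, 4-fold series at 0.2% DMSO.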
On the technique in general: Cellular ATP, detected with luciferase, serves as a proxy for viable cell number.

The target in another experiment is T1, BTK (Homo sapiens, UniProt Q06187).
T1 construct: High control=Cell group with added DMSO and without compound, indicating microplate readings without BTK degradation; endogenous in cells; host or cells: TMD-8 cells
T1 sequence (Q06187 whole entry): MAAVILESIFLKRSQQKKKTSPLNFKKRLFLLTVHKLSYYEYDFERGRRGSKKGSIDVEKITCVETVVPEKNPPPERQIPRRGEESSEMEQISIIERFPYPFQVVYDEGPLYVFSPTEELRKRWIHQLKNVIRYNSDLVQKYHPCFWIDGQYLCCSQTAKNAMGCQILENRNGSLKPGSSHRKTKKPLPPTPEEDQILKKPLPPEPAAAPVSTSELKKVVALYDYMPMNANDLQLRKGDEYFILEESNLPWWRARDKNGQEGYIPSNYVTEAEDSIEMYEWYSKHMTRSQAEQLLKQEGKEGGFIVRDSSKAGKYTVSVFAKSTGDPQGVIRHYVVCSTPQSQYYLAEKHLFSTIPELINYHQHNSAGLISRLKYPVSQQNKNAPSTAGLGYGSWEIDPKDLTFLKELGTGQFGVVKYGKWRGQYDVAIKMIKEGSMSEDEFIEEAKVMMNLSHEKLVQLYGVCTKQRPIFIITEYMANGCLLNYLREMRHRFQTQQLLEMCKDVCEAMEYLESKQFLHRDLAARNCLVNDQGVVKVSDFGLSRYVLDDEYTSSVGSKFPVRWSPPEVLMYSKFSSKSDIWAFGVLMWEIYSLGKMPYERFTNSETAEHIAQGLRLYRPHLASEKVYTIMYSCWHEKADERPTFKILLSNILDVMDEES
Nature of the experiment: Cell Degradation: BTK degradation in TMD-8 cells, HTRF assay. Type of experiment: cell-based. The following applies: 6 h treatment, IC50 (DC50) of BTK degradation. The procedure, abridged: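 BTK levels read by HTRF (665 vs 620 nm) in lysates of TMD-8 cells after 6 h compound exposure (eight doses, 6-fold steps, 0.2% DMSO). Percent degradation relative to controls; four-parameter curve fitting gave DC50, with Dmax the top degradation.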

In turn, `Cc1cc(-c2ncnc3[nH]c(-c4ccc(N5CCN(CC6CCN(c7ccc(N8CCC(=O)NC8=O)c(C)c7)CC6)CC5)c(C)c4)nc23)ccc1[C@@H](C)NC(=O)c1nc(C(C)(C)C)no1` [Example 112, (R)-3-(tert-butyl)-N-(1-(4-(8-(4-(4-((1-(4-(2,4-dioxotetrahydropyrimidin-1(2H)-yl)-3-methylphenyl)piperidin-4-yl)methyl)piperazin-1-yl)-3-methylphenyl)-9H-purin-6-yl)-2-methylphenyl)ethyl)-1,2,4-oxadiazole-5-carboxamide] registered an IC50 in the experiment on HEK-293 cells of over 10000 nM. The compound also showed a DC50 at BTK of 0.76 nM.
For `COc1cc(-c2nc3c(-c4ccc([C@@H](C)NC(=O)c5nc(C(C)(C)C)no5)c(C)c4)ncnc3[nH]2)ccc1N1CCN(CC2CCN(c3ccc(N4CCC(=O)NC4=O)c(C)c3)CC2)CC1` [Example 113, (R)-3-(tert-butyl)-N-(1-(4-(8-(4-(4-((1-(4-(2,4-dioxotetrahydropyrimidin-1(2H)-yl)-3-methylphenyl)piperidin-4-yl)methyl)piperazin-1-yl)-3-methoxyphenyl)-9H-purin-6-yl)-2-methylphenyl)ethyl)-1,2,4-oxadiazole-5-carboxamide], the IC50 with HEK-293 cells was over 10000 nM. This compound had a half-maximal degradation concentration (DC50) on BTK of 0.97 nM.
For `Cc1cc(N2CCN(CC3CCN(c4ccc(N5CCC(=O)NC5=O)c(C)c4)CC3)CC2)ccc1-c1nc2c(-c3ccc([C@@H](C)NC(=O)c4nc(C(C)(C)C)no4)c(C)c3)ncnc2[nH]1` [Example 114, (R)-3-(tert-butyl)-N-(1-(4-(8-(4-(4-((1-(4-(2,4-dioxotetrahydropyrimidin-1(2H)-yl)-3-methylphenyl)piperidin-4-yl)methyl)piperazin-1-yl)-2-methylphenyl)-9H-purin-6-yl)-2-methylphenyl)ethyl)-1,2,4-oxadiazole-5-carboxamide] the same measures were over 10000 nM and 1.68 nM.
In the same order, the values of `Cc1c([C@@H](C)NC(=O)c2noc(C(C)(C)C)n2)ccc(-c2ncnc3[nH]c(-c4ccc(N5CCN(CC6CCN(c7ccc(N8CCC(=O)NC8=O)cc7)CC6)CC5)cc4)cc23)c1F` [Example 115, (R)-5-(tert-butyl)-N-(1-(4-(6-(4-(4-((1-(4-(2,4-dioxotetrahydropyrimidin-1(2H)-yl)phenyl)piperidin-4-yl)methyl)piperazin-1-yl)phenyl)-7H-pyrrolo[2,3-d]pyrimidin-4-yl)-3-fluoro-2-methylphenyl)ethyl)-1,2,4-oxadiazole-3-carboxamide] are over 10000 nM and 1.83 nM.
In the case of `Cc1cc(-c2ncnc3[nH]c(-c4cccc(N5CCN(CC6CCN(c7ccc(N8CCC(=O)NC8=O)cc7)CC6)CC5)c4)cc23)ccc1[C@@H](C)NC(=O)c1nc(C(C)(C)C)no1` [Example 116, (R)-3-(tert-butyl)-N-(1-(4-(6-(3-(4-((1-(4-(2,4-dioxotetrahydropyrimidin-1(2H)-yl)phenyl)piperidin-4-yl)methyl)piperazin-1-yl)phenyl)-7H-pyrrolo[2,3-d]pyrimidin-4-yl)-2-methylphenyl)ethyl)-1,2,4-oxadiazole-5-carboxamide], in the experiment with HEK-293 cells, the 50% inhibitory concentration (IC50) was over 10000 nM. On BTK, this compound showed a DC50 of 2.28 nM.
Consider `Cc1cc(-c2ncnc3[nH]c(-c4ccc(N5CCN(CC6CCN(c7ccc(N8CCC(=O)NC8=O)cc7)CC6)CC5)nc4)cc23)ccc1[C@@H](C)NC(=O)c1cc(C(C)(C)C)on1` [Example 117, (R)-5-(tert-butyl)-N-(1-(4-(6-(6-(4-((1-(4-(2,4-dioxotetrahydropyrimidin-1(2H)-yl)phenyl)piperidin-4-yl)methyl)piperazin-1-yl)pyridin-3-yl)-7H-pyrrolo[2,3-d]pyrimidin-4-yl)-2-methylphenyl)ethyl)isoxazole-3-carboxamide], for which the concentration for half-maximal inhibition (IC50) with HEK-293 cells is over 10000 nM. Further, on BTK, the half-maximal degradation concentration (DC50) is 3.72 nM.
On to `C[C@@H](NC(=O)c1noc(C(C)(C)C)n1)c1ccc(-c2ncnc3[nH]c(-c4ccc(N5CCN(CC6CCN(c7ccc(N8CCC(=O)NC8=O)cc7)CC6)CC5)cc4)cc23)cc1CO` [Example 118, (R)-5-(tert-butyl)-N-(1-(4-(6-(4-(4-((1-(4-(2,4-dioxotetrahydropyrimidin-1(2H)-yl)phenyl)piperidin-4-yl)methyl)piperazin-1-yl)phenyl)-7H-pyrrolo[2,3-d]pyrimidin-4-yl)-2-(hydroxymethyl)phenyl)ethyl)-1,2,4-oxadiazole-3-carboxamide], for which the IC50 with HEK-293 cells was over 10000 nM. Moreover, half-maximal degradation on BTK (DC50) was put at 0.5 nM.
In the experiment with HEK-293 cells, `Cc1cc(-c2ncnc3[nH]c(-c4ccc(N5CCN(CC6CCN(c7cccc(N8CCC(=O)NC8=O)c7)CC6)CC5)cn4)cc23)ccc1[C@@H](C)NC(=O)c1nc(C(C)(C)C)no1` [Example 119, (R)-3-(tert-butyl)-N-(1-(4-(6-(5-(4-((1-(3-(2,4-dioxotetrahydropyrimidin-1(2H)-yl)phenyl)piperidin-4-yl)methyl)piperazin-1-yl)pyridin-2-yl)-7H-pyrrolo[2,3-d]pyrimidin-4-yl)-2-methylphenyl)ethyl)-1,2,4-oxadiazole-5-carboxamide] gave a concentration for half-maximal inhibition (IC50) of over 10000 nM. The same compound registered a DC50 at BTK of 1.2 nM.
For `Cc1nn(C2CCN(CC3CCN(c4ccc(N5CCC(=O)NC5=O)cc4)CC3)CC2)c(C)c1-c1cc2c(-c3ccc([C@@H](C)NC(=O)c4noc(C(C)(C)C)n4)c(CO)c3)ncnc2[nH]1` [Example 120, (R)-5-(tert-butyl)-N-(1-(4-(6-(1-(1-((1-(4-(2,4-dioxotetrahydropyrimidin-1(2H)-yl)phenyl)piperidin-4-yl)methyl)piperidin-4-yl)-3,5-dimethyl-1H-pyrazol-4-yl)-7H-pyrrolo[2,3-d]pyrimidin-4-yl)-2-(hydroxymethyl)phenyl)ethyl)-1,2,4-oxadiazole-3-carboxamide] the same measures were over 10000 nM and 0.18 nM.
In the same order, the values of `Cc1cc(-c2ncnc3[nH]c(-c4c(C)nn(C5CCN(CC6CCN(c7ccc(N8CCC(=O)NC8=O)cc7)CC6)CC5)c4C)cc23)ccc1[C@@H](C)NC(=O)c1cn(C(C)(C)C)nn1` [Example 121, (R)-1-(tert-butyl)-N-(1-(4-(6-(1-(1-((1-(4-(2,4-dioxotetrahydropyrimidin-1(2H)-yl)phenyl)piperidin-4-yl)methyl)piperidin-4-yl)-3,5-dimethyl-1H-pyrazol-4-yl)-7H-pyrrolo[2,3-d]pyrimidin-4-yl)-2-methylphenyl)ethyl)-1H-1,2,3-triazole-4-carboxamide] are over 10000 nM and 0.23 nM.
Compound `Cc1nn(C2CCN(CC3CCN(c4ccc(N5CCC(=O)NC5=O)cc4)CC3)CC2)c(C)c1-c1cc2c(-c3ccc([C@@H](C)NC(=O)c4cn(C(C)(C)C)nn4)c(CO)c3)ncnc2[nH]1` [Example 122, (R)-1-(tert-butyl)-N-(1-(4-(6-(1-(1-((1-(4-(2,4-dioxotetrahydropyrimidin-1(2H)-yl)phenyl)piperidin-4-yl)methyl)piperidin-4-yl)-3,5-dimethyl-1H-pyrazol-4-yl)-7H-pyrrolo[2,3-d]pyrimidin-4-yl)-2-(hydroxymethyl)phenyl)ethyl)-1H-1,2,3-triazole-4-carboxamide] registered an IC50 with HEK-293 cells of 4110 nM. Half-maximal degradation on BTK (DC50) was put at 0.29 nM.
For `Cc1cc(-c2ncnc3[nH]c(-c4ccc(N5CCN(CC6CCN(c7ccc(N8CCC(=O)NC8=O)c(C)c7)CC6)CC5)cn4)cc23)ccc1[C@@H](C)NC(=O)c1noc(C2(CO)CC2)n1` [Example 123, (R)-N-(1-(4-(6-(5-(4-((1-(4-(2,4-dioxotetrahydropyrimidin-1(2H)-yl)-3-methylphenyl)piperidin-4-yl)methyl)piperazin-1-yl)pyridin-2-yl)-7H-pyrrolo[2,3-d]pyrimidin-4-yl)-2-methylphenyl)ethyl)-5-(1-(hydroxymethyl)cyclopropyl)-1,2,4-oxadiazole-3-carboxamide] the same measures were over 10000 nM and 0.16 nM.
In the same order, the values of `Cc1cc(-c2ncnc3[nH]c(-c4ccc(N5CCN(CC6CCN(c7ccc(N8CCC(=O)NC8=O)cc7)CC6)CC5)cn4)cc23)ccc1[C@@H](C)NC(=O)c1noc(C2(C)CC2)n1` [Example 124, (R)-N-(1-(4-(6-(5-(4-((1-(4-(2,4-dioxotetrahydropyrimidin-1(2H)-yl)phenyl)piperidin-4-yl)methyl)piperazin-1-yl)pyridin-2-yl)-7H-pyrrolo[2,3-d]pyrimidin-4-yl)-2-methylphenyl)ethyl)-5-(1-methylcyclopropyl)-1,2,4-oxadiazole-3-carboxamide] are over 10000 nM and 1.01 nM.
For `Cc1cc(-c2ncnc3[nH]c(-c4ccc(N5CCN(CC6CCN(c7ccc(N8CCC(=O)NC8=O)c(C)c7)CC6)CC5)cn4)cc23)ccc1[C@@H](C)NC(=O)c1noc(C2(C)CC2)n1` [Example 125, (R)-N-(1-(4-(6-(5-(4-((1-(4-(2,4-dioxotetrahydropyrimidin-1(2H)-yl)-3-methylphenyl)piperidin-4-yl)methyl)piperazin-1-yl)pyridin-2-yl)-7H-pyrrolo[2,3-d]pyrimidin-4-yl)-2-methylphenyl)ethyl)-5-(1-methylcyclopropyl)-1,2,4-oxadiazole-3-carboxamide] the same measures were over 10000 nM and 0.74 nM.
In the case of `Cc1cc(-c2ncnc3[nH]c(-c4ccc(N5CCN(CC6CCN(c7ccc(N8CCC(=O)NC8=O)c(C)c7)CC6)CC5)nc4)cc23)ccc1[C@@H](C)NC(=O)c1noc(C2(C)CC2)n1` [Example 126, (R)-N-(1-(4-(6-(6-(4-((1-(4-(2,4-dioxotetrahydropyrimidin-1(2H)-yl)-3-methylphenyl)piperidin-4-yl)methyl)piperazin-1-yl)pyridin-3-yl)-7H-pyrrolo[2,3-d]pyrimidin-4-yl)-2-methylphenyl)ethyl)-5-(1-methylcyclopropyl)-1,2,4-oxadiazole-3-carboxamide], the half-inhibitory concentration (IC50) in the experiment with HEK-293 cells is over 10000 nM. For the same compound, the DC50 on BTK worked out at 0.41 nM.

For orientation: IC50 means the point on the concentration scale where inhibition reaches its midpoint. Low values mean greater potency, high ones weaker potency. As usually defined, the DC50 is the concentration at which degradation of the target reaches its halfway point. A high value points to degradation only at high concentration.
